# Source: PubChem BioAssay (NCI)
#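 Five compound concentrations were applied to cells in 96-well plates for 48 hours; endpoints were derived by simple linear interpolation of the resulting dose-response curve. The concentration for 50% growth inhibition is given as GI50. TGI: concentration producing complete growth inhibition.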
# Columns and labels:
# Experiment in all cases: NCI tumour cell line growth inhibition, 48 h
# [1] = test system: M14 melanoma
# [2] = test system: MDA-MB-231 breast
# [3] = test system: SK-MEL-2 melanoma
# [4] = test system: MDA-MB-435
# [5] = test system: LOX IMVI melanoma
# [6] = test system: NCI-H23 lung
# [7] = test system: 786-0 renal
# [8] = test system: IGROV1 ovarian
# [9] = test system: MALME-3M melanoma
# [10] = test system: SNB-19 CNS
# [11] = test system: NCI-H460 lung
# [12] = test system: CCRF-CEM leukemia
# [13] = test system: UACC-62 melanoma
# [14] = test system: PC-3 prostate
# [15] = test system: HL-60(TB) leukemia
# [16] = test system: SF-539 CNS
# [17] = test system: SK-OV-3 ovarian
# [18] = test system: NCI-H522 lung
# [19] = test system: OVCAR-3 ovarian
# [20] = test system: A498 renal
# [21] = test system: HOP-62 NSCLC
# [22] = test system: NCI/ADR-RES ovarian
# [23] = test system: UO-31 renal
# [24] = test system: BT-549 breast
# [25] = test system: SNB-75 CNS
# [26] = test system: T-47D breast
# [27] = test system: RPMI-8226 leukemia
# [28] = test system: ACHN renal
# [29] = test system: KM12 colon
# [30] = test system: SK-MEL-28 melanoma
# [31] = test system: DU-145 prostate
# [32] = test system: HCT-15 colon
# [33] = test system: SR leukemia
# [34] = test system: NCI-H226 lung
# [35] = test system: SN12C renal
# [36] = test system: SK-MEL-5 melanoma
# [37] = test system: EKVX NSCLC
# [38] = test system: OVCAR-5 ovarian
# [39] = test system: MCF7 breast
# [40] = test system: SW-620 colon
# [41] = test system: OVCAR-8 ovarian
# [42] = test system: A549 NSCLC
# [43] = test system: COLO 205 colon
# [44] = test system: TK-10 renal
# [45] = test system: U251 CNS
# [46] = test system: HCC-2998 colon
# [47] = test system: CAKI-1 renal
# [48] = test system: K-562 leukemia
# [49] = test system: HCT-116 colon
# [50] = test system: MOLT-4 leukemia
# [51] = test system: RXF 393 renal
# [52] = test system: OVCAR-4 ovarian
# [53] = test system: SF-295 CNS
# [54] = test system: HS 578T breast
# [55] = test system: HT29 colon
# [56] = test system: SF-268 CNS
structure (smiles),measurement,setting,value
COc1ccc2c(c1)nc(C(=O)c1ccco1)c(C(F)(F)F)[n+]2[O-],GI50,[1],> 100 µM
same,TGI,[1],> 100 µM
same,GI50,[2],> 100 µM
same,TGI,[2],> 100 µM
same,GI50,[3],> 100 µM
same,TGI,[3],> 100 µM
same,GI50,[4],> 100 µM
same,TGI,[4],> 100 µM
same,GI50,[5],> 100 µM
same,TGI,[5],> 100 µM
same,GI50,[6],> 100 µM
same,TGI,[6],> 100 µM
same,GI50,[7],29.2 µM
same,TGI,[7],> 100 µM
same,GI50,[8],> 100 µM
same,TGI,[8],> 100 µM
same,GI50,[9],> 100 µM
same,TGI,[9],> 100 µM
same,GI50,[10],> 100 µM
same,TGI,[10],> 100 µM
same,GI50,[11],> 100 µM
same,TGI,[11],> 100 µM
same,GI50,[12],> 100 µM
same,TGI,[12],> 100 µM
same,GI50,[13],> 100 µM
same,TGI,[13],> 100 µM
same,GI50,[14],77.4 µM
same,TGI,[14],> 100 µM
same,GI50,[15],> 100 µM
same,TGI,[15],> 100 µM
same,GI50,[16],> 100 µM
same,TGI,[16],> 100 µM
same,GI50,[17],> 100 µM
same,TGI,[17],> 100 µM
same,GI50,[18],> 100 µM
same,TGI,[18],> 100 µM
same,GI50,[19],> 100 µM
same,TGI,[19],> 100 µM
same,GI50,[20],> 100 µM
same,TGI,[20],> 100 µM
same,GI50,[21],> 100 µM
same,TGI,[21],> 100 µM
same,GI50,[22],> 100 µM
same,TGI,[22],> 100 µM
same,GI50,[23],> 100 µM
same,TGI,[23],> 100 µM
same,GI50,[24],> 100 µM
same,TGI,[24],> 100 µM
same,GI50,[25],51.4 µM
same,TGI,[25],> 100 µM
same,GI50,[26],77.4 µM
same,TGI,[26],> 100 µM
same,GI50,[27],> 100 µM
same,TGI,[27],> 100 µM
same,GI50,[28],> 100 µM
same,TGI,[28],> 100 µM
same,GI50,[29],> 100 µM
same,TGI,[29],> 100 µM
same,GI50,[30],> 100 µM
same,TGI,[30],> 100 µM
same,GI50,[31],> 100 µM
same,TGI,[31],> 100 µM
same,GI50,[32],> 100 µM
same,TGI,[32],> 100 µM
same,GI50,[33],> 100 µM
same,TGI,[33],> 100 µM
same,GI50,[34],> 100 µM
same,TGI,[34],> 100 µM
same,GI50,[35],> 100 µM
same,TGI,[35],> 100 µM
same,GI50,[36],> 100 µM
same,TGI,[36],> 100 µM
same,GI50,[37],> 100 µM
same,TGI,[37],> 100 µM
same,GI50,[38],> 100 µM
same,TGI,[38],> 100 µM
same,GI50,[39],> 100 µM
same,TGI,[39],> 100 µM
same,GI50,[40],> 100 µM
same,TGI,[40],> 100 µM
same,GI50,[41],> 100 µM
same,TGI,[41],> 100 µM
same,GI50,[42],> 100 µM
same,TGI,[42],> 100 µM
same,GI50,[43],> 100 µM
same,TGI,[43],> 100 µM
same,GI50,[44],86.8 µM
same,TGI,[44],> 100 µM
same,GI50,[45],> 100 µM
same,TGI,[45],> 100 µM
same,GI50,[46],> 100 µM
same,TGI,[46],> 100 µM
same,GI50,[47],> 100 µM
same,TGI,[47],> 100 µM
same,GI50,[48],> 100 µM
same,TGI,[48],> 100 µM
same,GI50,[49],> 100 µM
same,TGI,[49],> 100 µM
same,GI50,[50],> 100 µM
same,TGI,[50],> 100 µM
same,GI50,[51],47.5 µM
same,TGI,[51],> 100 µM
same,GI50,[52],> 100 µM
same,TGI,[52],> 100 µM
same,GI50,[53],> 100 µM
same,TGI,[53],> 100 µM
same,GI50,[54],> 100 µM
same,TGI,[54],> 100 µM
same,GI50,[55],> 100 µM
same,TGI,[55],> 100 µM
same,GI50,[56],83.8 µM
same,TGI,[56],> 100 µM
